# Where two headings read alike, the source gives them in different places.
# What was measured:
# [1] = biological target: His-tagged KRAS G12D protein (Homo sapiens, UniProt P01116, G12D); assay: KRAS G12D TR-FRET assay (binding); conditions: biotinylated KRPep-2d substrate, GDP in assay buffer
# Protocol: The plate was incubated for 30 minutes at room temperature. Biotinylated KRPep-2d substrate (Amgen) was diluted to 20 nM in Assay Buffer and 2 L was added to all wells and incubated for 1 hour at room temperature. Detection Reagent (0.4 nM LANCE Eu-W1024 Anti-6xHis (Perkin Elmer AD0401), 5 nM streptavidin-d^2 (Cisbio 610SADLA)) was prepared in Assay Buffer, then 4 μL was added to the plate and incubated for 1 hour at room temperature.
# [2] = test system: Phosphorylation of ERK1/2 in AsPC-1 cells; assay: Phospho-ERK1/2 MSD assay; format: cell-based
# Protocol: Sixteen hours prior to compound treatment, AsPC-1 cells were seeded in 96-well cell culture plates at a density of 25,000 cells/well and incubated at 37° C., 5% CO2. A compound dose-response titration was diluted in growth media, added to appropriate wells of a cell culture plate, and then incubated at 37° C., 5% CO2 for 2 hours.
# [3] = Homo sapiens, ASPC1, read-out: 2 h p-ERK (AsPC-1 cells), IC50 (μM), 2 hours compound treatment
# Chain of His-tagged KRAS G12D protein (P01116 1-188 isoform P01116-2 G12D): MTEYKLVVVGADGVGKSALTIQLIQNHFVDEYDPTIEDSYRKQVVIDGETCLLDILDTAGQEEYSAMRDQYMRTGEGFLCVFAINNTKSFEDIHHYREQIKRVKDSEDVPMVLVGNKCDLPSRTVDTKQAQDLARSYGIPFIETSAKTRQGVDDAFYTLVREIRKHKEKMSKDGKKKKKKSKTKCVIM
Structure (SMILES),IC50 [1] [nM],"IC50 [2, 3] [µM]","IC50 ([2]; read-out: 2 h p-ERK (AsPC-1 cells), IC50, 2 hours compound treatment) [µM]"
"CCc1c(F)ccc2cc(O)cc(-c3ncc4c(N5CCOC(C(N)=O)C5)nc(OC[C@@]56CCCN5C[C@H](F)C6)nc4c3F)c12 (stereo partly drawn) [Example 76, 4-(7-(8-Ethyl-7-fluoro-3-hydroxynaphthalen-1-yl)-8-fluoro-2-(((2R,7aS)-2-fluorotetrahydro-1H-pyrrolizin-7a(5H)-yl)methoxy)pyrido[4,3-d]pyrimidin-4-yl)morpholine-2-carboxamide]",6,3.33,
"CCc1cccc2cc(O)cc(-c3ncc4c(N5CCOC[C@@](C)(O)C5)nc(OC[C@@]56CCCN5C[C@H](F)C6)nc4c3F)c12 [Example 78, (S)-4-(7-(8-Ethyl-3-hydroxynaphthalen-1-yl)-8-fluoro-2-(((2R,7aS)-2-fluorotetrahydro-1H-pyrrolizin-7a(5H)-yl)methoxy)pyrido [4,3-d]pyrimidin-4-yl)-6-methyl-1,4-oxazepan-6-ol]",1,0.013,
"CCc1c(F)ccc2cc(O)cc(-c3ncc4c(N5CCOC[C@](O)(CC)C5)nc(OC[C@@]56CCCN5C[C@H](F)C6)nc4c3F)c12 [Example 79, (S)-6-Ethyl-4-(7-(8-ethyl-7-fluoro-3-hydroxynaphthalen-1-yl)-8-fluoro-2-(((2R,7aS)-2-fluorotetrahydro-1H-pyrrolizin-7a(5H)-yl)methoxy)pyrido [4,3-d]pyrimidin-4-yl)-1,4-oxazepan-6-o1]",1,,0.024

# Reference: patent US20250122222A1, “HETEROCYCLIC COMPOUNDS AND METHODS OF USE” (AMGEN INC., priority 2021, published 2025)
